In brackets after ≈: the same amount, converted by molar mass. Read-outs that look alike come from different tables or passages of the source.
Experiments:
[1] = test system: Enterococcus durans; assay: MIC determination, stool Firmicute isolates; type: cell-based
[2] = test system: Clostridium tertium; assay: MIC determination, stool Firmicute isolates; type: cell-based

O=c1[nH]c(NCc2ccc(Cl)c(Cl)c2)nc2ncn(CCN3CCOCC3)c12 [Ibezapolstat, 2-((3,4-dichlorobenzyl)amino)-7-(2-morpholinoethyl)-1,7-dihydro-6H-purin-6-one]
MIC50 ([1]; N=1): 100 µg/mL (≈ 236 µM)
MIC ([1]; N=1, read-out: MIC Max): 100 µg/mL (≈ 236 µM)
MIC ([1]; N=1, read-out: MIC Min): 100 µg/mL (≈ 236 µM)
MIC50 [2]: 12.5 µg/mL (≈ 29.5 µM)
MIC ([2]; N=2, read-out: MIC Min): 3.12 µg/mL (≈ 7.38 µM)
MIC ([2]; read-out: MIC Max): 12.5 µg/mL (≈ 29.5 µM)

— patent US20260144796A1, “Compounds and Methods for Improving Health” (Acurx Pharmaceuticals, Inc., priority 2022, published 2026)
